Assay results: US10526337B2, “Heteroaryl derivative or pharmaceutically acceptable salt thereof, preparation method therefor, and pharmaceutical composition for preventing or treating diseases associated with PI3 kinases, containing same as active ingredient” (KOREA RESEARCH INSTITUTE OF CHEMICAL TECHNOLOGY, priority 2015, dated 2020)

Tests used:
[1] = target: T1, PI3 Kinase (p110δ/p85α) (h) (Homo sapiens, UniProt O00329); assay: Inhibition of phosphatidylinositol 3-kinase delta (PI3K δ), pAkt Western blotting in IgM-stimulated Raji cells; type: cell-based; settings: ATP=10 uM, sample concentration=100 nM
T1 construct: endogenous in cells; host or cells: Raji
T1 sequence (O00329 whole entry): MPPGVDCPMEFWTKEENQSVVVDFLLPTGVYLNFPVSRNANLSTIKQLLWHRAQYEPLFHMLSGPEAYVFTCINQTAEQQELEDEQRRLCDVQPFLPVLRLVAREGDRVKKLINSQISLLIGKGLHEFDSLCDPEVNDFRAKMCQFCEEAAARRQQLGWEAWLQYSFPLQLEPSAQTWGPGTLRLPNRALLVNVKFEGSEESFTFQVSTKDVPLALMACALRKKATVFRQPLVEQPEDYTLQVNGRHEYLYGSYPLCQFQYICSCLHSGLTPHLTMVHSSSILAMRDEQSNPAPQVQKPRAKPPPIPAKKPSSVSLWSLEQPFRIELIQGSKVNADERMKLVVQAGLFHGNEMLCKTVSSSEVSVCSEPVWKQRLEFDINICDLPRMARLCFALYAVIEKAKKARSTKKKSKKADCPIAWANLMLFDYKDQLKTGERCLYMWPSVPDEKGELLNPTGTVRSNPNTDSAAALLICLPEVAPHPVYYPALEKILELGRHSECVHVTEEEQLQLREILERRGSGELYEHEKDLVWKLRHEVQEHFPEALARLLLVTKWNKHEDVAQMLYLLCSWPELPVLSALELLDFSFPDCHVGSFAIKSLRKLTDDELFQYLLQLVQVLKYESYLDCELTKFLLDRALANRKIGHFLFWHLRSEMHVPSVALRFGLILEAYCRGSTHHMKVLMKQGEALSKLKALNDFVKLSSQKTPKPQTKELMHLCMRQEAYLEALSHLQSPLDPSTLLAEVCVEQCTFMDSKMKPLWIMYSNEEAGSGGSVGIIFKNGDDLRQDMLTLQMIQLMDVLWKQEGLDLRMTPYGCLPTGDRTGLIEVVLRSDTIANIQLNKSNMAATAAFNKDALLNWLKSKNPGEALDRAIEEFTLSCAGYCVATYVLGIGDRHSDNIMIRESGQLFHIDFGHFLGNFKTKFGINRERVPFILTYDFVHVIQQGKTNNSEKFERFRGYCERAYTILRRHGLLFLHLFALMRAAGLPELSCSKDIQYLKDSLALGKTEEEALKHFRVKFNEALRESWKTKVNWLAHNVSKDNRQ
T1 sequence (P27986 whole entry partner): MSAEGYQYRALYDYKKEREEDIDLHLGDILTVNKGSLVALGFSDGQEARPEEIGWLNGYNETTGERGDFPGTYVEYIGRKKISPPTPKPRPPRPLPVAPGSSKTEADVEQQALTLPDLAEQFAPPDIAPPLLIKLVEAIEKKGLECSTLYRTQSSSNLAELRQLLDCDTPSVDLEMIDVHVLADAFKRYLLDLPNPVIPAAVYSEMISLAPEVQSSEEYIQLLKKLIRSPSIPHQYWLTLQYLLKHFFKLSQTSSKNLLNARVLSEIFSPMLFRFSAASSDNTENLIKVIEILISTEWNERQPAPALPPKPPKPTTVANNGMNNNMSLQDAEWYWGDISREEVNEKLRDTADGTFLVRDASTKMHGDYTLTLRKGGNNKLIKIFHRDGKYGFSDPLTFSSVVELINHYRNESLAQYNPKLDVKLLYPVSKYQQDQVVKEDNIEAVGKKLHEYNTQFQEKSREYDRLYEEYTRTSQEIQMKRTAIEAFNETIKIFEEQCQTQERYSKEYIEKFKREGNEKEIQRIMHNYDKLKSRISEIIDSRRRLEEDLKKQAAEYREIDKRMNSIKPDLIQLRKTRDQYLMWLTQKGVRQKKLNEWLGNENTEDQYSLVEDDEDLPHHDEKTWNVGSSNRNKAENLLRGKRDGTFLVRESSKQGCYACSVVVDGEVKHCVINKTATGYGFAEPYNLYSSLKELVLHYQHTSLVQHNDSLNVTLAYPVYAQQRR
Experimental: (§1) The stimulated cells were transferred in a 1.5 mL tube, followed by centrifugation at 3000 rpm for 1 minute. 100 μL of RIPA buffer (radioimmunoprecipitation assay buffer, 50 mM Tris-HCl, 5 mM EDTA, 150 mM NaCl, 1% NP-40, 1 mM PMSF, pH 8.0; ELPIS, Korea) was added thereto, which was stored in a 4° C. refrigerator for 12 hours. Centrifugation was performed at 4° C. at 14,000 rpm for 20 minutes. The supernatant was transferred into a new 1.5 mL tube. Protein was quantified by BCA (bicinchoninic acid) method and samples were prepared. The composition of the sample was as follows: sample buffer (ELPIS, EBA-1052) 5×, protein 10 μg, and 1× sample buffer to make the total volume 20 μL. The sample was heated at 100° C. for 5 minutes. The evaporated water vapor was condensed in a refrigerator. The liquid stained on the wall was fallen down by centrifugation for a few seconds. The sample proceeded to 10% SDS (Sodium Dodecyl Sulfate) acrylamide gel for separation. The separated protein was transferred onto PVDF (poly-vinyl difluoride) membrane, followed by reaction with pAkt (phospho protein kinase B) antibody (Ser473 or Thr308; Cell signaling, 9271s or 13038s) for 12 hours at 4° C. The membrane was washed with TBST (Tris-Buffered Saline with Tween 20, 10 mM Tris-HCl, pH 7.5, 150 mM NaCl, 0.1% Tween-20) three times for 5 minutes each, to which the secondary antibody (rabbit antibody, Santacruz, sc-2004) was added, followed by reaction at room temperature for 2 hours. The membrane was washed with TBST three times for 10 minutes each, to which ECL (enhanced chemiluminescence, Thermo, NCI34095KR) was sprayed. Bands were investigated by using LAS-3000.
The inhibition of phosphatidylinositol 3 kinase delta (PI3K δ) by those compounds prepared in Examples 1˜98 was investigated by the following experiment. The inhibition activity of each compound was measured in the following conditions: ATP=10 uM, and sample concentration=100 nM.
(§2) Raji cells cultured in RPMI1640 (Hyclone, SH30027.02) supplemented with 10% fetal bovine serum (Hyclon, USA) were distributed in a 12-well plate at the density of 1,000,000 cells/well. The cells were stabilized in a 37° C. CO2 for 24 hours and then treated with each compound for 1 and half hours. The cells were treated with 0.25 μg/mL of IgM (immunoglobulin M, Southern Biotech, USA) to increase the intracellular activity of PI3K delta. 30 minutes later, the medium was discarded and the cells were washed with cold PBS (phosphate buffered saline, Gibco, 14190-250). PBS was then eliminated completely by using a pipette. Western blotting was performed according to the same manner as described in step 2 of Experimental Example 1 to evaluate the intracellular PI3K delta activity.

[2] = target: T2, PI3 Kinase (p120γ) (h) (Homo sapiens, UniProt P48736); assay: Inhibition of phosphatidylinositol 3-kinase gamma (PI3K γ), pAkt Western blotting in C5a-stimulated RAW264.7 macrophages; type: cell-based, mouse; settings: ATP=10 uM, sample concentration=100 nM
T2 construct: endogenous in cells; host or cells: RAW264.7
T2 sequence (P48736 whole entry): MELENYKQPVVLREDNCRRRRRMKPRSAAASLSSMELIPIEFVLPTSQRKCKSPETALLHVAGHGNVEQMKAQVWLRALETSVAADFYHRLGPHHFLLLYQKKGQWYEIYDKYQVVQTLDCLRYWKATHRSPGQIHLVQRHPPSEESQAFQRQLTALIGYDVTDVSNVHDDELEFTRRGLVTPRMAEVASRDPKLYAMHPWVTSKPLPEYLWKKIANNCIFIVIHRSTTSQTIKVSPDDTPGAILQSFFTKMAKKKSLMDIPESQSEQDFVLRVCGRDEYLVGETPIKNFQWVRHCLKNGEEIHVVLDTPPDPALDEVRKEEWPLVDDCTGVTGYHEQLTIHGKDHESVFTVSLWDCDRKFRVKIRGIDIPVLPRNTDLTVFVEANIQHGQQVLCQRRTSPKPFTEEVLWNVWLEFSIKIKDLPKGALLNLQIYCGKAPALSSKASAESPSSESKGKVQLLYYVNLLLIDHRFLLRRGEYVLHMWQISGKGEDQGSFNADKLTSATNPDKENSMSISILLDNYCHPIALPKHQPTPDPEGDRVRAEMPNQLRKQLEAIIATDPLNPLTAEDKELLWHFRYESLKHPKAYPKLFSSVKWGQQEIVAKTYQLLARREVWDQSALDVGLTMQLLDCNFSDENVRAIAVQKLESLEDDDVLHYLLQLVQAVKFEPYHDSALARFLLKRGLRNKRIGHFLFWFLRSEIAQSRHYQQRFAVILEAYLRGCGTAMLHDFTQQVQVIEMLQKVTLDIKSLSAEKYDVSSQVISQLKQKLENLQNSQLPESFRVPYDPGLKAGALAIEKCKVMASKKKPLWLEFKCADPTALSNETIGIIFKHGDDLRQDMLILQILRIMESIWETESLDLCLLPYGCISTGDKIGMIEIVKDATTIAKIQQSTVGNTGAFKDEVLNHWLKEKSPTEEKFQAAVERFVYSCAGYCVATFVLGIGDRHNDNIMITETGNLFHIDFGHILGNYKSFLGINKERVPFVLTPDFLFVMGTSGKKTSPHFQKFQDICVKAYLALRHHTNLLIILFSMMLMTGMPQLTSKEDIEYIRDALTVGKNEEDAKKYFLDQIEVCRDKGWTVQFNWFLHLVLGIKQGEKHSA
Experimental: as §1
The inhibition of phosphatidylinositol 3 kinase gamma (PI3K γ) by those compounds prepared in Examples 1˜98 was investigated by the following experiment. The inhibition activity of each compound was measured in the following conditions: ATP=10 uM, and sample concentration=100 nM.
as §2, with “Macrophages (RAW264.7)” for “Raji cells”, “DMEM (Dulbecco's Modified Eagle Medium, Hyclon, SH30243.01)” for “RPMI1640 (Hyclone, SH30027.02)”, “10 ng/mL” for “0.25 μg/mL”, “C5a (complement component 5a, 10 μg/mL; R&D, 2150-C5)” for “IgM (immunoglobulin M, Southern Biotech, USA)”, “gamma. 5” for “delta. 30”, “gamma” for “delta”

Structure (SMILES) | IC50 [1] | IC50 [2]
C[C@H](Nc1ncnc2[nH]ccc(=O)c12)c1nc2ccc(F)cc2c(=O)n1Cc1ccccn1 [Example 32, (S)-4-((1-(6-fluoro-4-oxo-3-(pyridine-2-ylmethyl)-3,4-dihydroquinazoline-2-yl)ethyl)amino)pyrido[2,3-d]pyrimidine-5(8H)-one] | > 500 nM | –
C[C@H](Nc1ncnc2c1C(=O)N(C)CN2)c1nc2cccc(Cl)c2c(=O)n1-c1ccccc1 [Example 34, (S)-5-((1-(5-chloro-4-oxo-3-phenyl-3,4-dihydroquinazoline-2-yl)ethyl)amino)-3-methyl-2,3-dihydropyrimido[4,5-d]pyrimidine-4(1H)-one] | < 10 nM | 10 to 500 nM
C[C@H](Nc1ncnc2c1C(=O)N(C)CN2)c1nc2cccc(Cl)c2c(=O)n1-c1cccnc1 [Example 35, (S)-5-((1-(5-chloro-4-oxo-3-(pyridine-3-yl)-3,4-dihydroquinazoline-2-yl)ethyl)amino)-3-methyl-2,3-dihydropyrimido[4,5-d]pyrimidine-4(1H)-one] | 10 to 500 nM | 10 to 500 nM
C[C@H](Nc1ncnc2c1C(=O)N(C)CN2)c1nc2cccc(Cl)c2c(=O)n1-c1cccc(F)c1 [Example 36, (S)-5-((1-(5-chloro-3-(3-fluorophenyl)-4-oxo-3,4-dihydroquinazoline-2-yl)ethyl)amino)-3-methyl-2,3-dihydropyrimido[4,5-d]pyrimidine-4(1H)-one] | < 10 nM | 10 to 500 nM
Cc1cccc(-n2c([C@H](C)Nc3ncnc4c3C(=O)N(C)CN4)nc3cccc(Cl)c3c2=O)c1 [Example 37, (S)-5-((1-(5-chloro-4-oxo-3-(m-tolyl)-3,4-dihydroquinazoline-2-yl)ethyl)amino)-3-methyl-2,3-dihydropyrimido[4,5-d]pyrimidine-4(1H)-one] | < 10 nM | 10 to 500 nM
CC(Nc1ncnc2c1C(=O)N(C)CN2)c1cc2ccccc2nc1-c1ccccc1 (stereo not drawn) [Example 39, 3-methyl-5-((1-(2-phenylquinoline-3-yl)ethyl)amino)-2,3-dihydropyrimido[4,5-d]pyrimidine-4(1H)-one] | 10 to 500 nM | 10 to 500 nM
C[C@H](Nc1ncnc2c1C(=O)N(C)CN2)c1cc2ccccc2nc1-c1ccccc1 [Example 39-1, (S)-3-methyl-5-((1-(2-phenylquinoline-3-yl)ethyl)amino)-2,3-dihydropyrimido[4,5-d]pyrimidine-4(1H)-one] | 10 to 500 nM | < 10 nM
CC[C@H](Nc1ncnc2c1C(=O)N(C)CN2)c1nc2cccc(F)c2c(=O)n1-c1ccccc1 [Example 41, (S)-5-((1-(5-fluoro-4-oxo-3-phenyl-3,4-dihydroquinazoline-2-yl)propyl)amino)-3-methyl-2,3-dihydropyrimido[4,5-d]pyrimidine-4(1H)-one] | 10 to 500 nM | 10 to 500 nM
CN1CNc2ncnc(N3CCC[C@H]3c3nc4cccc(Cl)c4c(=O)n3-c3ccccc3)c2C1=O [Example 42, (S)-5-(2-(5-chloro-4-oxo-3-phenyl-3,4-dihydroquinazoline-2-yl)pyrrolidine-1-yl)-3-methyl-2,3-dihydropyrimido[4,5-d]pyrimidine-4(1H)-one] | 10 to 500 nM | 10 to 500 nM
CN1CNc2ncnc(N3CCC[C@H]3c3nc4cccc(Cl)c4c(=O)n3-c3cccnc3)c2C1=O [Example 43, (S)-5-(2-(5-chloro-4-oxo-3-(pyridine-3-yl)-3,4-dihydroquinazoline-2-yl)pyrrolidine-1-yl)-3-methyl-2,3-dihydropyrimido[4,5-d]pyrimidine-4(1H)-one] | > 500 nM | > 500 nM
CN1CNc2ncnc(N3CCC[C@H]3c3nc4cccc(Cl)c4c(=O)n3-c3cccc(F)c3)c2C1=O [Example 44, (S)-5-(2-(5-chloro-3-(3-fluorophenyl)-4-oxo-3,4-dihydroquinazoline-2-yl)pyrrolidine-1-yl)-3-methyl-2,3-dihydropyrimido[4,5-d]pyrimidine-4(1H)-one] | < 10 nM | 10 to 500 nM
Cc1cccc(-n2c([C@@H]3CCCN3c3ncnc4c3C(=O)N(C)CN4)nc3cccc(Cl)c3c2=O)c1 [Example 45, (S)-5-(2-(5-chloro-4-oxo-3-(m-tolyl)-3,4-dihydroquinazoline-2-yl)pyrrolidine-1-yl)-3-methyl-2,3-dihydropyrimido[4,5-d]pyrimidine-4(1H)-one] | 10 to 500 nM | 10 to 500 nM
CN1CNc2ncnc(N3CCC[C@H]3c3cc4cccc(Cl)c4c(=O)n3-c3ccccc3)c2C1=O [Example 46, (S)-5-(2-(8-chloro-1-oxo-2-phenyl-1,2-dihydroisoquinoline-3-yl)pyrrolidine-1-yl)-3-methyl-2,3-dihydropyrimido[4,5-d]pyrimidine-4(1H)-one] | < 10 nM | 10 to 500 nM
CN1CNc2ncnc(N3CCC[C@H]3c3nn4ccc(Cl)c4c(=O)n3-c3ccccc3)c2C1=O [Example 47, (S)-5-(2-(5-chloro-4-oxo-3-phenyl-3,4-dihydropyrrolo[2,1-f][1,2,4]triazine-2-yl)pyrrolidine-1-yl)-3-methyl-2,3-dihydropyrimido[4,5-d]pyrimidine-4(1H)-one] | 10 to 500 nM | 10 to 500 nM
C[C@H](Nc1nc(N)nc2c1C(=O)N(C)CN2)c1nc2cccc(Cl)c2c(=O)n1-c1ccccc1 [Example 48, (S)-7-amino-5-((1-(5-chloro-4-oxo-3-phenyl-3,4-dihydroquinazoline-2-yl)ethyl)amino)-3-methyl-2,3-dihydropyrimido[4,5-d]pyrimidine-4(1H)-one] | < 10 nM | < 10 nM
C[C@H](Nc1nc(N)nc2c1C(=O)N(C)CN2)c1nc2cccc(Cl)c2c(=O)n1-c1cccnc1 [Example 49, (S)-7-amino-5-((1-(5-chloro-4-oxo-3-(pyridine-3-yl)-3,4-dihydroquinazoline-2-yl)ethyl)amino)-3-methyl-2,3-dihydropyrimido[4,5-d]pyrimidine-4(1H)-one] | < 10 nM | 10 to 500 nM
C[C@H](Nc1nc(N)nc2c1C(=O)N(C)CN2)c1nc2cccc(Cl)c2c(=O)n1-c1cccc(F)c1 [Example 50, (S)-7-amino-5-((1-(5-chloro-3-(3-fluorophenyl)-4-oxo-3,4-dihydroquinazoline-2-yl)ethyl)amino)-3-methyl-2,3-dihydropyrimido[4,5-d]pyrimidine-4(1H)-one] | < 10 nM | 10 to 500 nM
Cc1cccc(-n2c([C@H](C)Nc3nc(N)nc4c3C(=O)N(C)CN4)nc3cccc(Cl)c3c2=O)c1 [Example 51, (S)-7-amino-5-((1-(5-chloro-4-oxo-3-(m-tolyl)-3,4-dihydroquinazoline-2-yl)ethyl)amino)-3-methyl-2,3-dihydropyrimido[4,5-d]pyrimidine-4(1H)-one] | < 10 nM | 10 to 500 nM
C[C@H](Nc1nc(N)nc2c1C(=O)N(C)CN2)c1cc2cccc(Cl)c2c(=O)n1-c1ccccc1 [Example 52, (S)-7-amino-5-((1-(8-chloro-1-oxo-2-phenyl-1,2-dihydroisoquinoline-3-yl)ethyl)amino)-3-methyl-2,3-dihydropyrimido[4,5-d]pyrimidine-4(1H)-one] | < 10 nM | < 10 nM
C[C@H](Nc1nc(N)nc2c1C(=O)N(C)CN2)c1cc2ccccc2nc1-c1ccccc1 [Example 53, (S)-7-amino-3-methyl-5-((1-(2-phenylquinoline-3-yl)ethyl)amino)-2,3-dihydropyrimido[4,5-d]pyrimidine-4(1H)-one] | 10 to 500 nM | 10 to 500 nM
